We go through 18 molecules from PMC6073568, “Efficient Lead Finding, Activity Enhancement and Preliminary Selectivity Control of Nuclear Receptor Ligands Bearing a Phenanthridinone Skeleton” (International Journal of Molecular Sciences, 2018).

The target of one assay is T1, RORα (Homo sapiens, UniProt P35398).
T1 construct: expressed in transfected cells; host or cells: HEK293
T1 sequence (P35398 1-523): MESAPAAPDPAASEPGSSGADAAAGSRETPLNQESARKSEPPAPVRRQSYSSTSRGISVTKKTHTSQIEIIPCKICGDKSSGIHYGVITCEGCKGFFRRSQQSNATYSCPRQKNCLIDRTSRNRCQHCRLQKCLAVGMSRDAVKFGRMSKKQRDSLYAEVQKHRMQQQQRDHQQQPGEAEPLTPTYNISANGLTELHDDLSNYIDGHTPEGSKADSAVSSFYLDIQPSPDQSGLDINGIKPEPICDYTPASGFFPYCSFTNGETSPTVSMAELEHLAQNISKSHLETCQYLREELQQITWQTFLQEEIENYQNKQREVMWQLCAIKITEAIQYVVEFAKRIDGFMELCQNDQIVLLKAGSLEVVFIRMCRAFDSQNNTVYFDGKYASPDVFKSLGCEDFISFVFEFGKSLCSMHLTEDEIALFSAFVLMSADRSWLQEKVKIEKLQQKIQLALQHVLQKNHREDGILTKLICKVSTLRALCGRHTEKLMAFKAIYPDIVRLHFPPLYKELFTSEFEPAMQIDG
Particulars: reporter gene assay, HEK293; read-out: RORα inverse agonistic activity (IC50); cited from earlier work.

In a further assay the target is T2, RORγ (Homo sapiens, UniProt P51449).
T2 construct: expressed in transfected cells; host or cells: HEK293
T2 sequence (P51449 1-518): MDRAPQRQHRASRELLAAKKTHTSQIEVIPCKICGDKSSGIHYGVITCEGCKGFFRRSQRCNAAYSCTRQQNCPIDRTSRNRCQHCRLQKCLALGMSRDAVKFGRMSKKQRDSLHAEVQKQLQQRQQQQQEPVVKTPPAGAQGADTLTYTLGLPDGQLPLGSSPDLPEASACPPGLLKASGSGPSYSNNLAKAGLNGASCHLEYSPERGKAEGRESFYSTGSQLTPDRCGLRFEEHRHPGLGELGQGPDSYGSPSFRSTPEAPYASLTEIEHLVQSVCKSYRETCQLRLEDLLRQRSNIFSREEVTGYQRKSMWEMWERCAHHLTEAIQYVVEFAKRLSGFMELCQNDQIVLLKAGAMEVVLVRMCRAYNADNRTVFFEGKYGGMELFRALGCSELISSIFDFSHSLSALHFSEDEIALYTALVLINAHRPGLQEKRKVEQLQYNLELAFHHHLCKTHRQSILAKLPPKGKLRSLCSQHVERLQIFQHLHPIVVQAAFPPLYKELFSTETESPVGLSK
To be noted: reporter gene assay, HEK293; read-out: RORγ inverse agonistic activity (IC50); cited from earlier work.

The target in the next assay is T3, AR (Homo sapiens, UniProt P10275).
T3 sequence (P10275 1-920): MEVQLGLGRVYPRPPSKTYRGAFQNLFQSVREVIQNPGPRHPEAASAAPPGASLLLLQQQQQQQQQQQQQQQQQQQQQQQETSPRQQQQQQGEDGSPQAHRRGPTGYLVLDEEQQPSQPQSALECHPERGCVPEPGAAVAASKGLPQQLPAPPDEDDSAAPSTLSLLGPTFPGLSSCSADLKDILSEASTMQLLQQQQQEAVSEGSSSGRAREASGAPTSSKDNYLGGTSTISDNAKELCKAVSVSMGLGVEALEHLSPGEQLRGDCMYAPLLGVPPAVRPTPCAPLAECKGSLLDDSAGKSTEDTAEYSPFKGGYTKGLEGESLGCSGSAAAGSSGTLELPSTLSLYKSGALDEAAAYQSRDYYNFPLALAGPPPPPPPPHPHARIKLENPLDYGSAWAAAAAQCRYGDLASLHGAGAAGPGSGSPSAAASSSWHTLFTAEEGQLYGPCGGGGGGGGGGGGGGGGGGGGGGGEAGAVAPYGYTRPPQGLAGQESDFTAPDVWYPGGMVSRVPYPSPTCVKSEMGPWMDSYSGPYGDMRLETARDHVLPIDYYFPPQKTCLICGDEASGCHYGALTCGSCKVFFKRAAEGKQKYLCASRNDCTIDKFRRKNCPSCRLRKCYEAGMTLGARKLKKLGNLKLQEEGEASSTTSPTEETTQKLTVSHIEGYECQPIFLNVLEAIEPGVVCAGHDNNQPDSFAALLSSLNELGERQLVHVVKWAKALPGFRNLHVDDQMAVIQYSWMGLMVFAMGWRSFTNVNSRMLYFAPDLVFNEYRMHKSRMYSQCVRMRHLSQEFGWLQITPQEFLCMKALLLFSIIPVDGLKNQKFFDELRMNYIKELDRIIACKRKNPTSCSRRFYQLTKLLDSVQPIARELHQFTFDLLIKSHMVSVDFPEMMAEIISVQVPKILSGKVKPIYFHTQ
Kind of assay: AR reporter gene assay in HEK293. In kind it is cell-based. Particulars: for IC50: reporter gene assay, HEK293, agonist dihydrotestosterone 0.3 nM, read-out: AR antagonistic activity (IC50), AR reporter gene.

A further assay addresses T4, RORβ (Homo sapiens, UniProt Q92753).
T4 construct: expressed in transfected cells; host or cells: HEK293
T4 sequence (Q92753 1-459 isoform Q92753-1): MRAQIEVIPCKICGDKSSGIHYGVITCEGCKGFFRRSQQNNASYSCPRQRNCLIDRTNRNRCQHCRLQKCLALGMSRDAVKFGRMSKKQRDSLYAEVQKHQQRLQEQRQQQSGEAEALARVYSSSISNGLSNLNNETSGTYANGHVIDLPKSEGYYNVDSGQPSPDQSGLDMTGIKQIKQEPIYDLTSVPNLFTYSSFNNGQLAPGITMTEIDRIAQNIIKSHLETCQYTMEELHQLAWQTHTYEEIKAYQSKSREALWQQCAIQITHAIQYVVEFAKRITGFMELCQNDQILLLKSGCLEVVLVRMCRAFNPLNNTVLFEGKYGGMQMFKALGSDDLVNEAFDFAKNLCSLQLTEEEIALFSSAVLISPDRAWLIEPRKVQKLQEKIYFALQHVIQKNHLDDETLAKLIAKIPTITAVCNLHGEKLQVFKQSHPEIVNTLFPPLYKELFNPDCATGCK
To be noted: reporter gene assay, HEK293; read-out: RORβ inverse agonistic activity (IC50); cited from earlier work.

In another assay the target is T5, LXRα (Homo sapiens, UniProt Q13133).
T5 construct: CMX-GAL4N-hLXRα-LBD; expressed in transfected cells; host or cells: HEK293
T5 sequence (Q13133 209-447 limits assumed): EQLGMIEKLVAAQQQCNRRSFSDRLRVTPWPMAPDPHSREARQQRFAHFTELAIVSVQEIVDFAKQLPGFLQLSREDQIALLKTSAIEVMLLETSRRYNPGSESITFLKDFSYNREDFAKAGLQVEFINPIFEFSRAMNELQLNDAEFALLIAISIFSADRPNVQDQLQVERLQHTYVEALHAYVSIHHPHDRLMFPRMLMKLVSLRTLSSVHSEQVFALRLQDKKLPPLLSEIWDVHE
As to the kind of experiment: LXRα reporter gene assay in HEK293. In kind it is cell-based. To be noted: read-out: LXRα antagonistic activity (IC50).

Regarding `O=c1[nH]c2ccc(C(O)(C(F)(F)F)C(F)(F)F)cc2c2ccccc12` [Compound 1], the IC50 at RORα is > 20 µM; at RORγ it was > 20 µM; at AR, 0.1 µM; at RORβ, > 20 µM.

For `CCCCn1c(=O)c2ccccc2c2ccccc21` [Compound 7], the IC50 on RORα is 10 µM; on LXRα it was 19 µM; at RORγ, 15 µM; on AR, 17 µM; at RORβ it was 13 µM.

`CCCCn1c(=O)c2ccccc2c2cc(C(C)(C)C)ccc21` [Compound 10]: the IC50 on RORα was 12 µM; at LXRα, > 20 µM; on RORγ it was 10 µM; at AR, 17 µM; on RORβ it was 13 µM.

In the case of `CCCCn1c(=O)c2ccccc2c2cc(CO)ccc21` [Compound 11], the IC50 is > 20 µM at RORα; > 20 µM on LXRα; > 20 µM at RORγ; 9.6 µM on AR; > 20 µM at RORβ.

For `Cn1c(=O)c2ccccc2c2cc(C(O)(C(F)(F)F)C(F)(F)F)ccc21` [Compound 13], the IC50 is > 20 µM at RORα, > 20 µM at RORγ, 0.5 µM on AR and > 20 µM at RORβ.

`CCn1c(=O)c2ccccc2c2cc(C(O)(C(F)(F)F)C(F)(F)F)ccc21` [Compound 14]: the IC50 on RORα was > 20 µM; on LXRα, 14 µM; at RORγ, > 20 µM; at AR it was 1.7 µM; at RORβ, > 20 µM.

For the molecule `CCCCCCCCCn1c(=O)c2ccccc2c2cc(C(O)(C(F)(F)F)C(F)(F)F)ccc21` [Compound 17], the IC50 at RORα is > 20 µM; on LXRα, > 20 µM; on RORγ, > 20 µM; on AR, 15 µM; on RORβ, > 20 µM.

As to `CCCCn1c(=O)c2ccccc2c2c(OC)c(C(O)(C(F)(F)F)C(F)(F)F)ccc21` [Compound 18], the IC50 at RORα, on LXRα, at RORγ, on AR and at RORβ was > 20 µM in each case.

For `CCCCn1c(=O)c2ccccc2c2cc(C(O)(C(F)(F)F)C(F)(F)F)c(OC)cc21` [Compound 19], the IC50 on RORα is 8.2 µM; on LXRα, 8.4 µM; on RORγ, 7.5 µM; at AR it was 1.1 µM; at RORβ, 8.2 µM.

Consider `CCCCn1c(=O)c2ccccc2c2cc(C(O)(C(F)(F)F)C(F)(F)F)cc(OC)c21` [Compound 20], for which the IC50 at RORα was 7.5 µM; at LXRα, 6.9 µM; on RORγ it was 5.4 µM; on AR, 2.4 µM; at RORβ, 6.9 µM.

For the molecule `CCCCn1c(=O)c2c(OC)cccc2c2cc(C(O)(C(F)(F)F)C(F)(F)F)ccc21` [Compound 21], the IC50 at RORα is 12 µM; on LXRα, 11 µM; at RORγ, 13 µM; at AR it was 9.4 µM; on RORβ it was 15 µM.

In the case of `CCCCn1c(=O)c2cc(OC)ccc2c2cc(C(O)(C(F)(F)F)C(F)(F)F)ccc21` [Compound 22], the IC50 on RORα is 12 µM; at LXRα it was 12 µM; on RORγ, 13 µM; on AR, 1 µM; at RORβ it was 15 µM.

Turning to `CCCCn1c(=O)c2ccc(OC)cc2c2cc(C(O)(C(F)(F)F)C(F)(F)F)ccc21` [Compound 23], the concentration for half-maximal inhibition (IC50) was 6.6 µM at RORα; 7 µM at LXRα; 2.7 µM at RORγ; > 20 µM on AR; 7.2 µM on RORβ.

In the case of `CCCCn1c(=O)c2cccc(OC)c2c2cc(C(O)(C(F)(F)F)C(F)(F)F)ccc21` [Compound 24], the IC50 was 7.7 µM on RORα; 4.6 µM at LXRα; 8.5 µM at RORγ; > 20 µM at AR; > 20 µM at RORβ.

Consider `CCCCn1c(=O)c2ccccc2c2cc(C(O)(C(F)(F)F)C(F)(F)F)c(OC)c(OC)c21` [Compound 25], for which the IC50 on RORα is > 10 µM; at LXRα, 8.5 µM; at RORγ, 8.5 µM; at AR, 6.1 µM; on RORβ, > 10 µM.

As for `CCCCn1c(=O)c2ccccc2c2cc(C(O)(C(F)(F)F)C(F)(F)F)c3c(c21)OCO3` [Compound 26], the IC50 is > 20 µM at RORα; > 20 µM on LXRα; > 20 µM at RORγ; 0.54 µM at AR; > 20 µM at RORβ.

As for `CCCCn1c(=O)c2cc(OC)ccc2c2cc(C(O)(C(F)(F)F)C(F)(F)F)c(OC)cc21` [Compound 27], the IC50 at RORα is 9.5 µM; at LXRα it was 17 µM; on RORγ it was 12 µM; at AR, 0.58 µM; on RORβ, 13 µM.

Take `O=c1[nH]c2c(Cl)cc(C(O)(C(F)(F)F)C(F)(F)F)cc2c2ccccc12` [Compound 43, 4-Chloro-2-(1,1,1,3,3,3-hexafluoro-2-hydroxypropan-2-yl)phenanthridin-6(5H)-one]: at LXRα, the IC50 came to 5.3 µM. Further, at AR, the “selectivity for AR over LXRα” value came out at 90 fold; the “selectivity for AR over PR” value is reported as 6 fold; the “selectivity for AR over RORs and LXRβ” value is given as “more than 340 fold”; the IC50 amounted to 0.059 µM. The “AR potency relative to OHF (more potent)” value on AR (under the authors' assay conditions) was 2.9 fold.
